Experimental data: US11572402B2, “Method for promoting diversification of antibody variable region” (Chiome Bioscience Inc., priority 2017, dated 2023)

How the values were obtained:
hVEGF-A-#33 cell line = test: Affinity Maturation and FCM, cells in Affinity Maturation Gate; type: cell-based, chicken; conditions: A66 10 μM, PI3Kα Inhibitor 2 500 nM, Day 7, versus conditions without drug
Procedure: (§1) Frozen stocks of the hVEGF-A #33 cell line and the hVEGF-A #44 cell line (3.0×10^6 cells) were each awaken with a CS(−) medium, using a 25 cm^2 Flask (Corning, 430639), and were then cultured in a CO2 incubator (SANYO CO2 Incubator MCO-20AIC, 39.5° C., 5% CO2). On the following day, the cells were seeded on a 6-well dish (Nunc, 140675) to a cell density of 1.0×10^4 cells/mL (wherein the cell concentration and the survival rate were measured using CASY cell counter (Nepa Gene)). The cells were cultured in a CS(+) medium, in the presence or absence of a PI3Kα inhibitor (A66: 10 μM, PI3Kα Inhibitor 2: 500 nM). Moreover, after the cells had been cultured for 2 days, individual samples were subcultured under the same conditions to result in a cell density of 1.0×10^4 cells/mL. […] A plot, in which the vertical axis indicated AF647 (AF647-labeled hVEGF-A) and the longitudinal axis indicated PE (Goat Anti-Human IgG-PE), was developed, and the percentage of PE+(hIgG+)/[…] cells was then calculated. […] The percentage of clones with improved antigen-binding ability was calculated by counting the number of cells existing in this Affinity Maturation Gate and then dividing the obtained value by the total number of the analyzed cells. […]

hVEGF-A-#44 cell line = test: as above; type: cell-based, chicken; conditions: A66 10 μM, PI3Kα Inhibitor 2 500 nM, Day 7, versus conditions without drug
Procedure: as §1

In the case of `Cc1nc(NC(=O)N2CCC[C@H]2C(N)=O)sc1-c1csc(C(C)(C)C)n1` [A66], the “percentage of the cells with improved antigen-binding ability (Affinity Maturation Gate, 5 or more times increased in MFI)” value (hVEGF-A-#33 cell line) is reported as “increased” and the “percentage of the cells with improved antigen-binding ability (Affinity Maturation Gate, 5 or more times increased in MFI)” value (hVEGF-A-#44 cell line) is reported as “increased”.
